Laboratory results published in ChEMBL document CHEMBL1909046, “DrugMatrix in vitro pharmacology data”.

Key:
[1] = DRUGMATRIX: Glutamate, Kainate radioligand binding (ligand: [3H] Kainic acid); type: cell membranes, Rattus norvegicus, Wistar, Brain, Membrane; settings: Not Active = under 50% inhibition at 10 µM
[2] = DRUGMATRIX: beta-Lactamase enzyme inhibition (substrate: Nitrocefin); set-up: species or system Bacillus cereus; settings: Not Active = under 50% inhibition at 10 µM
[3] = DRUGMATRIX: Sodium/nucleoside co-transporter radioligand binding (ligand: nitrobenzylthioinosine); type: cell membranes, Cavia porcellus, Dunkin-Hartley, Cerebral cortex, Membrane; settings: Not Active = under 50% inhibition at 10 µM
D(4) dopamine receptor = molecular target: T1, D(4) dopamine receptor (Homo sapiens, UniProt P21917); experiment: DRUGMATRIX: Dopamine D4.2 radioligand binding (ligand: [3H] Spiperone); type: cell membranes, CHO-K1, Membrane; settings: cho-k1; Not Active = under 50% inhibition at 10 µM
T1 sequence (P21917 whole entry): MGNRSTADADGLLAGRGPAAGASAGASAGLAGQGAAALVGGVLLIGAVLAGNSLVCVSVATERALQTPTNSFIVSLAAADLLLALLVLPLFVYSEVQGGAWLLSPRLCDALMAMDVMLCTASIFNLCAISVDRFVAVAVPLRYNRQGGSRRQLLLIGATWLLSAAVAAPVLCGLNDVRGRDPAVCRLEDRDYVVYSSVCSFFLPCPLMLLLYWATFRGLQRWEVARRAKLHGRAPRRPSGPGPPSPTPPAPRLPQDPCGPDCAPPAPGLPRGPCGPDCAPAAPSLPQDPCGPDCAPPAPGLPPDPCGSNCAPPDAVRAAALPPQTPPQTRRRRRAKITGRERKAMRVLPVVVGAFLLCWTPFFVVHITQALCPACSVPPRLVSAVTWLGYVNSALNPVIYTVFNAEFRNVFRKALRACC

Histamine H2 receptor = Histamine H2 receptor (Homo sapiens, UniProt P25021); type: cell membranes, CHO-K1, Membrane; settings: cho-k1; also: in other assays of this panel Not Active means under 50% inhibition at 10 µM
[4] = molecular target: T2, C-X-C chemokine receptor type 1 (Homo sapiens, UniProt P25024); also: in other assays of this panel Not Active means under 50% inhibition at 10 µM
T2 sequence (P25024 whole entry): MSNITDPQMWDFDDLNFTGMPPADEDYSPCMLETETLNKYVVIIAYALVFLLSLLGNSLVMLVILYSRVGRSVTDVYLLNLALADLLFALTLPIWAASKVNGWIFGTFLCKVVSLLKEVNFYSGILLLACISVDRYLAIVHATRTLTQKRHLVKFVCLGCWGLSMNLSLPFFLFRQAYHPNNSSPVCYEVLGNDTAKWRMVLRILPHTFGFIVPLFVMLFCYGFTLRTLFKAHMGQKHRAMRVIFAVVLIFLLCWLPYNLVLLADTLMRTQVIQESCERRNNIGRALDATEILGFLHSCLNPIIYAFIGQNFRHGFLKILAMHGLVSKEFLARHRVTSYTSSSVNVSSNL

Glycine receptor = Glycine receptor (Rattus norvegicus, UniProt P22771+P24524+P07727+P20781); type: cell membranes, Wistar, Spinal cord, Membrane; also: in other assays of this panel Not Active means under 50% inhibition at 10 µM
D(3) dopamine receptor = D(3) dopamine receptor (Homo sapiens, UniProt P35462); experiment: DRUGMATRIX: Dopamine D3 radioligand binding (ligand: [3H] Spiperone); type: cell membranes, CHO, Membrane; settings: cho
[5] = DRUGMATRIX: Imidazoline I2, Central radioligand binding (ligand: [3H] Idazoxan); type: cell membranes, Rattus norvegicus, Wistar, Cerebral cortex, Membrane; settings: Not Active = under 50% inhibition at 10 µM
Thromboxane-A synthase = molecular target: T3, Thromboxane-A synthase (Homo sapiens, UniProt P24557); experiment: biochemical; type: tissue-based, Platelet; settings: platelet;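 also: enzyme inhibition assay with PGH2 supplied as substrate; in other assays of this panel Not Active means under 50% inhibition at 10 µM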
T3 sequence (P24557 whole entry): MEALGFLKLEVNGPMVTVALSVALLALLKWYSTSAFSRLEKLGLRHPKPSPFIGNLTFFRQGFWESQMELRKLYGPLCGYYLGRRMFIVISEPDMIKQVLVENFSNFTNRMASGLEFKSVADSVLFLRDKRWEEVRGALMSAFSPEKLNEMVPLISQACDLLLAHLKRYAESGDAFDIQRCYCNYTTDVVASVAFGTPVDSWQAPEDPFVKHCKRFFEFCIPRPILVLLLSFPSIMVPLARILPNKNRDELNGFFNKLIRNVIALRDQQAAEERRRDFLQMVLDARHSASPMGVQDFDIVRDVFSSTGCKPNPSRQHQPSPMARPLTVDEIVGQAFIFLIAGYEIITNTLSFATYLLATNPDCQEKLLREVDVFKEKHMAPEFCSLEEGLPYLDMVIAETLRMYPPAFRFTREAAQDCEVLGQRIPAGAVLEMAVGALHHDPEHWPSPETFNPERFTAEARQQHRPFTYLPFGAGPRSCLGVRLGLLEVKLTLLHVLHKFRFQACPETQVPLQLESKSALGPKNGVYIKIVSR

[6] = molecular target: 5-hydroxytryptamine receptor 6 (Homo sapiens, UniProt P50406); type: cell membranes, HeLa, Membrane; settings: hela; also: in other assays of this panel Not Active means under 50% inhibition at 10 µM
[7] = DRUGMATRIX: Platelet-Derived Growth Factor (PDGF) radioligand binding (ligand: [125I] PDGF); type: cell-based; settings: nih3t3; Not Active = under 50% inhibition at 10 µM
[8] = molecular target: Beta-3 adrenergic receptor (Homo sapiens, UniProt P13945); experiment: DRUGMATRIX: Adrenergic beta3 radioligand binding (ligand: [125I] Cyanopindolol); type: cell membranes, HEK293, Membrane; settings: hek293; Not Active = under 50% inhibition at 10 µM
[9] = DRUGMATRIX: Glutamate, AMPA radioligand binding (ligand: [3H] AMPA); type: cell membranes, Rattus norvegicus, Wistar, Cerebral cortex, Membrane; settings: Not Active = under 50% inhibition at 10 µM
[10] = molecular target: 5-hydroxytryptamine receptor 2B (Homo sapiens, UniProt P41595); type: cell membranes, CHO-K1, Membrane; settings: cho-k1; also: in other assays of this panel Not Active means under 50% inhibition at 10 µM
[11] = DRUGMATRIX: GABAA, Chloride Channel, TBOB radioligand binding (ligand: [3H] TBOB); type: cell membranes, Rattus norvegicus, Wistar, Cerebral cortex, Membrane; settings: Not Active = under 50% inhibition at 10 µM
[12] = molecular target: Sodium-dependent noradrenaline transporter (Homo sapiens, UniProt P23975); experiment: DRUGMATRIX: Norepinephrine Transporter radioligand binding (ligand: [125I] RTI-55); type: cell membranes, MDCK, Membrane; settings: mdck; Not Active = under 50% inhibition at 10 µM
Sequence of Sodium-dependent noradrenaline transporter (P23975 whole entry): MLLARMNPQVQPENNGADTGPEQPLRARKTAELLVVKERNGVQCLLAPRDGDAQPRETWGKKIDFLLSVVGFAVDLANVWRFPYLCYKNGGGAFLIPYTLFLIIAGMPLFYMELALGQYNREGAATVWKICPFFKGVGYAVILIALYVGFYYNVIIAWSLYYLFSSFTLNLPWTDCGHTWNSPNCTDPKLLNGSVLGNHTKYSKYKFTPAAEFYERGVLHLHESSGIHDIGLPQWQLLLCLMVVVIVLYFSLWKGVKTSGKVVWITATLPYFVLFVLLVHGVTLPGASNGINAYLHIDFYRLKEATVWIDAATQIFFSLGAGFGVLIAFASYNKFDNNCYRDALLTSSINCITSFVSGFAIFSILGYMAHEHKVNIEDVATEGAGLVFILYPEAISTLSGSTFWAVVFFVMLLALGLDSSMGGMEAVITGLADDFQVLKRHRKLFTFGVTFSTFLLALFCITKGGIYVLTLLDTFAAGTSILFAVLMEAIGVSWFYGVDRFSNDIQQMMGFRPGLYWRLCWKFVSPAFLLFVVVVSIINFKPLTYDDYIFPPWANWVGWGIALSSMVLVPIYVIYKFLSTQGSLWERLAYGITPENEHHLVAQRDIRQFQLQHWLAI

Sequence of 5-hydroxytryptamine receptor 2B (P41595 whole entry): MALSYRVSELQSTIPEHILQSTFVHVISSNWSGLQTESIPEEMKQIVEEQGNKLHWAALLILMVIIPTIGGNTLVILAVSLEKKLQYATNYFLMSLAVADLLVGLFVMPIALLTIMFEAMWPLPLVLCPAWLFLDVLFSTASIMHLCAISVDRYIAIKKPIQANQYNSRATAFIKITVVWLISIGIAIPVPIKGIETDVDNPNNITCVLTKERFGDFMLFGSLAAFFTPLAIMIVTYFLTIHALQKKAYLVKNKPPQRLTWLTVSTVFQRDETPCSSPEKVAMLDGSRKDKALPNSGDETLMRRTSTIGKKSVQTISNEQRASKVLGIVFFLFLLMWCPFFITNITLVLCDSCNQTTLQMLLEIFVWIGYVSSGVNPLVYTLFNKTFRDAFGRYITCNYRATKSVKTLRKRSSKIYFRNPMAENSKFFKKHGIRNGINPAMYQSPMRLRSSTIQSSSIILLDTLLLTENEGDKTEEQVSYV
Sequence of Beta-3 adrenergic receptor (P13945 whole entry): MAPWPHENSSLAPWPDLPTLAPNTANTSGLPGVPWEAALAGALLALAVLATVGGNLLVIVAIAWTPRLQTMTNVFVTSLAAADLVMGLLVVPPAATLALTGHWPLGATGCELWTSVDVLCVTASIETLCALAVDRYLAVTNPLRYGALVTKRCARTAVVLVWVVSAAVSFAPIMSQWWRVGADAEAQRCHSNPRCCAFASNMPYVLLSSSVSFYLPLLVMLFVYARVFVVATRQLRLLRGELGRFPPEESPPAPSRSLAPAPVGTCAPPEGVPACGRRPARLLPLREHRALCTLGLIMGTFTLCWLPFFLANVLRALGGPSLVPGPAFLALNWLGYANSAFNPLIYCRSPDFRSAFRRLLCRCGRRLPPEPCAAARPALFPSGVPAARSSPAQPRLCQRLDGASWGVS
Sequence of 5-hydroxytryptamine receptor 6 (P50406 whole entry): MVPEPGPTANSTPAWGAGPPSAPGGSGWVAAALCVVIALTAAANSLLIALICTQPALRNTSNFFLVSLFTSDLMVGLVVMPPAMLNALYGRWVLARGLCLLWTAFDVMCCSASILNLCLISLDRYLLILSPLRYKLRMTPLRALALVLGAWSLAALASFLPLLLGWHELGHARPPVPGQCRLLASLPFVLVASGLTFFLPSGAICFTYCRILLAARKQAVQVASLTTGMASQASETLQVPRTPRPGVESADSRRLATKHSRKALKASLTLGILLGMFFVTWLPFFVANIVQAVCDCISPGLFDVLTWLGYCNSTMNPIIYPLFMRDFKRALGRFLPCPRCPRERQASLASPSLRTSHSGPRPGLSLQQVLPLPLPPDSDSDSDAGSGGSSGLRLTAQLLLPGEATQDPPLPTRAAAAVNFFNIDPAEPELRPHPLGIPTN
Sequence of D(3) dopamine receptor (P35462 whole entry): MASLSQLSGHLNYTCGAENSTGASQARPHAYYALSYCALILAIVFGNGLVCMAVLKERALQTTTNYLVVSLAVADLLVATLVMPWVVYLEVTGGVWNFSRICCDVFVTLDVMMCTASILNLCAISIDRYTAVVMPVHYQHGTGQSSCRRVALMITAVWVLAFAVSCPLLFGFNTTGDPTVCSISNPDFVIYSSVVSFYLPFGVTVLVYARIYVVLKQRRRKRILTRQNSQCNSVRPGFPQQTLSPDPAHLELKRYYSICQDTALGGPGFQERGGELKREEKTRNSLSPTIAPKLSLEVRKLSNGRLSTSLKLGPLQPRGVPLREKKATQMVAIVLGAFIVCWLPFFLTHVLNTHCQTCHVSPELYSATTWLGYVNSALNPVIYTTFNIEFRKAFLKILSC
Sequence of Histamine H2 receptor (P25021 whole entry): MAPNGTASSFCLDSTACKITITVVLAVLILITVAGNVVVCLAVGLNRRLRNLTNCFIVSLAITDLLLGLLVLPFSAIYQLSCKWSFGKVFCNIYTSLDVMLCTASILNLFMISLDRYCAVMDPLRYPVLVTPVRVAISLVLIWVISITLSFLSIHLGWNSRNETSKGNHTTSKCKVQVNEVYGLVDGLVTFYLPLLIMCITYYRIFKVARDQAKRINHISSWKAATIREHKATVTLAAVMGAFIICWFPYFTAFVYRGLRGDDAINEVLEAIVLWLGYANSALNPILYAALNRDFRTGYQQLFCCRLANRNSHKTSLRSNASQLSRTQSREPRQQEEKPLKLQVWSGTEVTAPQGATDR

C/C=C1\[C@H]2C=C(C)C[C@]1(N)c1ccc(=O)[nH]c1C2 [HUPERZINE A]
Not Active: IC50 [1] | Ki [1] | IC50 [2] | Ki [2] | IC50 [3] | Ki [3] | IC50 (D(4) dopamine receptor) | IC50 (Histamine H2 receptor) | IC50 [4] | IC50 (Glycine receptor) | IC50 (D(3) dopamine receptor) | IC50 [5] | Ki [5] | IC50 (Thromboxane-A synthase) | IC50 [6] | IC50 [7] | Ki [7] | IC50 [8] | IC50 [9] | Ki [9] | IC50 [10] | IC50 [11] | Ki [11] | IC50 [12]

NS(=O)(=O)c1cc2c(cc1Cl)NCNS2(=O)=O [HYDROCHLOROTHIAZIDE]
Not Active: IC50 [1] | Ki [1] | IC50 [2] | Ki [2] | IC50 [3] | Ki [3] | IC50 (D(4) dopamine receptor) | IC50 (Histamine H2 receptor) | IC50 [4] | IC50 (Glycine receptor) | IC50 (D(3) dopamine receptor) | IC50 [5] | Ki [5] | IC50 (Thromboxane-A synthase) | IC50 [6] | IC50 [7] | Ki [7] | IC50 [8] | IC50 [9] | Ki [9] | IC50 [10] | IC50 [11] | Ki [11] | IC50 [12]

O=P1(NCCCl)OCCCN1CCCl (stereo not given) [IFOSFAMIDE]
Not Active: IC50 [1] | Ki [1] | IC50 [2] | Ki [2] | IC50 [3] | Ki [3] | IC50 (D(4) dopamine receptor) | IC50 (Histamine H2 receptor) | IC50 [4] | IC50 (Glycine receptor) | IC50 (D(3) dopamine receptor) | IC50 [5] | Ki [5] | IC50 (Thromboxane-A synthase) | IC50 [6] | IC50 [7] | Ki [7] | IC50 [8] | IC50 [9] | Ki [9] | IC50 [10] | IC50 [11] | Ki [11] | IC50 [12]

CN1CCC[C@H]1c1cccnc1 [NICOTINE]
Not Active: IC50 [1] | Ki [1] | IC50 [2] | Ki [2] | IC50 [3] | Ki [3] | IC50 (D(4) dopamine receptor) | IC50 (Histamine H2 receptor) | IC50 [4] | IC50 (Glycine receptor) | IC50 (D(3) dopamine receptor) | IC50 [5] | Ki [5] | IC50 (Thromboxane-A synthase) | IC50 [6] | IC50 [7] | Ki [7] | IC50 [8] | IC50 [9] | Ki [9] | IC50 [10] | IC50 [11] | Ki [11] | IC50 [12]

O=C1CN=C(c2ccccc2)c2cc([N+](=O)[O-])ccc2N1 [NITRAZEPAM]
Not Active: IC50 [1] | Ki [1] | IC50 [2] | Ki [2] | IC50 [3] | Ki [3] | IC50 (D(4) dopamine receptor) | IC50 (Histamine H2 receptor) | IC50 [4] | IC50 (Glycine receptor) | IC50 (D(3) dopamine receptor) | IC50 [5] | Ki [5] | IC50 (Thromboxane-A synthase) | IC50 [6] | IC50 [7] | Ki [7] | IC50 [8] | IC50 [9] | Ki [9] | IC50 [10] | IC50 [11] | Ki [11] | IC50 [12]
